From patent US8962646B2, “Peripherally acting opioid compounds” (Alkermes, Inc., priority 2011, dated 2015)
Entries after “also recorded” stand apart in the source; their conditions may differ.

Key:
[1] = test system: hot plate response latency; assay: Rat hot plate model of centrally mediated analgesia
Method: Rats were then tested on the hot plate 5, 30, 60, 120, 240 and 360 minutes later. The amount of time it took to lick one hind paw is measured and is considered the response latency. The mean and SEM of the responses latencies for each experimental group were calculated and a line depicting mean hot plate latency vs. time was generated using GraphPad Prism. An increase in mean response latency above baseline following test compound administration is indicative of an antinociceptive effect.

[2] = test system: acetic acid induced writhing; assay: Acetic-acid induced writhing model of inflammatory pain; type: in vivo; conditions: mice, intraperitoneal, 1% acetic acid
Method: The number of writhes was counted for 15 minutes (3 consecutive 5 minute time bins). […] “Normal” posture was defined as movements opposite to those listed above (e.g. convex curvature of the spine, legs not extended, abdomen not lowered, tail in a straight or relaxed position, etc).
The total number of writhes over the 15 minute test session was used for all data analysis. All data was transformed using GraphPad Prism to % change from daily vehicle control for analysis based on the number of writhes produced by the saline vehicle control group (% change=# writhes in test group/mean # of writhes in daily vehicle control group*100).

[3] = target: T1, human μ opioid receptor (Homo sapiens (Human), UniProt P35372); conditions: CHO cell membranes, cloned human receptor, […] [3H]DAMGO; read-out: Binding affinity μ (Ki, nm)
[4] = target: human δ opioid receptor (Homo sapiens (Human), UniProt P41143); assay: Receptor binding, competitive displacement of [3H]naltrindole; conditions: CHO cell membranes, cloned human receptor, 0.2 nM [3H]naltrindole; uM; read-out: Binding affinity δ (Ki)
[5] = test system: CFA-induced weight bearing deficits; assay: CFA induced weight bearing deficits in rats
Method: Animals were habituated to the weight bearing test apparatus for 2 days prior to the start of the experiment. On Day 0, rats were tested in the weight bearing apparatus to measure baseline weight bearing of untreated hind paws. Following baseline testing, animals were injected intra-plantar with Complete Freund's Adjuvant (CFA). Using a syringe with a locking hub and 25 G needle, rats were injected via rear, left intra-plantar administration with 100 μL of 100% CFA (1.0 mg/ml) while under light isofluorane anesthesia. No treatment was administered to the right, rear, contralateral paw.
Intra-plantar test-compound administration was done while the animal was under light (3%) isofluorane anesthesia using 0.3 ml insulin syringe. The amount of anesthesia given to the animal during test compound administration was limited to a very short duration, so not to impede measurement of weight bearing at the 5 minute time point. On Day 1 (24 hrs post CFA), rats were tested in the weight bearing apparatus to measure CFA-induced changes in weight bearing. […] Following test compound administration, animals were retested in the weight bearing apparatus at the following time points: 5, 15, 30, 60 and 120 minutes post-test compound administration. Animals were retested on Day 2 (post-CFA) if there is a significant change in CFA induced weight bearing at the 120 minute time point on Day 1.

[6] = target: human κ opioid receptor (Homo sapiens (Human), UniProt P41145); conditions: read-out: Binding affinity κ (Ki, nm)
[7] = target: T1, human μ opioid receptor; type: biochemical; conditions: [35S]GTPγS binding, CHO membranes
Method: The [^35S]GTPγS assay measures the functional properties of a compound by quantifying the level of G-protein activation following agonist binding in studies using stably transfected cells, and is considered to be a measure of the efficacy of a compound. Membranes from CHO (Chinese Hamster Ovary) cells that stably expressed the cloned human Mu opioid receptor were used in the experiments. In a final volume of 0.5 mL, 12 different concentrations of each test compound were incubated with 7.5 μg of CHO cell membranes that stably expressed the human μ opioid receptor. The assay buffer consisted of 50 mM Tris-HCl, pH 7.4, 3 mM MgCl2, 0.2 mM EGTA, 3 μM GDP, and 100 mM NaCl. The final concentration of [^35S]GTPγS was 0.080 nM. Nonspecific binding was measured by inclusion of 10 μM GTPγS. Binding was initiated by the addition of the membranes. After an incubation of 60 min at 30° C., the samples were filtered through Schleicher & Schuell No. 32 glass fiber filters. The filters were washed three times with cold 50 mM Tris-HCl, pH 7.5, and were counted in 2 mL of Ecoscint scintillation fluid.

[8] = test system: mice; assay: In vivo behavioral studies (clinical observation assay); conditions: 10 mg/kg SC, observed over 24 hours
Method: Groups of mice (n=5 per group; >60 days; 20-25 grams weight) were dosed with vehicle (0.9% sterile saline) or test compounds (10 mg/kg free base, SC) 30 minutes before the first observation period. The occurrence of Straub tail, piloerection, hyperlocomotion, hypolocomotion, circling of the cage, sedation, breathing abnormalities, diuresis, seizure activity and occurrences of death were recorded at 0.5, 1, 2, 4, 6 and 24 hours following dosing.
This is tested with our clinical observation assay where mice are injected with 10 mg/kg subcutaneously with drug and the behaviors are noted over 24 hours.

[9] = test system: formalin-induced events; assay: Formalin model of pain; type: in vivo; conditions: rats, subcutaneous
Method: Nonfasted male Harlan rats were assigned to treatment group according to a randomized block study design to balance for test chamber and time of day, and day of test (if applicable). Each rat was administered either vehicle or test compound subcutaneously and then placed in their assigned test chamber and acclimated for 25-30 minutes with the chamber enclosure door left open. Data was not collected during this period. Following the acclimation period, each rat was removed individually starting with chamber 1, and dosed 5% formalin subcutaneously into the right rear paw plantar surface (formalin was made from a 37% stock solution, diluted down to 5% with saline).
Data collection started when the first rat was replaced in chamber 1 and the chamber door was closed and latched (skipped 1-minute acclimation screen on software). The number of events (also defined as “number of seconds”), defined as the number of 1-second bins with a change in dynamic force that exceeded an empirically determined threshold value (a value of arbitrary load units, which corresponded visually with rats quietly breathing or sniffing), were totaled in 5-minute intervals. In control rats, the number of events first increases within 5 minutes and then decreases during the subsequent 5 minutes (a quiescent phase) after formalin administration (Phase I, or Early Phase, of the formalin test), then increases again during the subsequent 35 minutes (Phase II, or Late Phase) of the formalin test. Formalin-induced movements detected by the system include licking and flinching of the affected paw as well as hopping and turning.
For constructing summaries for analysis of dose response curves or screens in the formalin test, the total number of events during the first 5 minutes after formalin administration was considered to be Phase I (Early Phase), and the total number of events for minutes 11 to 35 after formalin was considered to be Phase II (Late Phase). Data were analyzed using 1-way ANOVA, and comparisons of drug treatment groups were compared with control groups using appropriate, statistician-guided tests—most commonly Dunnett's for dose response curves and a Student's t-test for two-group (i.e. vehicle vs. positive control) comparison—utilizing JMP statistical software (SAS Institute Inc, Cary, N.C.). Data was expressed as means±SEM. An ED50 was calculated utilizing GraphPad Prism software.

SMILES: CN1CC[C@]23CC(=O)CC[C@@]2(O)[C@H]1Cc1ccc(C(=O)NCCc2ccc(-c4cnc(O)nc4O)cc2)c(O)c13 [Compound 4]
- Hot plate efficacy at the highest dose tested ([1]; SC 100 mg/kg): sub-maximal efficacy
- Hot plate activity compared with morphine ([1]; SC 10, 30 and 100 mg/kg): significantly less active than morphine
- ED50 ([2]; Mus musculus, ip): 0.7 mg/kg
- Effect on acetic acid induced writhing [2]: blocked acetic acid induced writhing in a dose-dependent manner
- Ki [3]: 1.3 nM
- Ki [4]: > 1 µM
- Analgesic effect with concurrent intra-plantar 75 ug naloxone methiodide ([5]; 10 μg/paw intra-plantar): significantly inhibited
- Reversal of CFA-induced weight bearing deficits ([5]; intra-plantar, 3, 10 and 30 μg/paw): dose-dependent reversal of CFA-induced weight bearing deficits; also recorded: comparable to that seen with Morphine
- Ki [6]: 190 nM
- In vitro functional agonism for μ receptor Agonist? [7]: Yes
- Clinical Observations after 10 mg/kg subcutaneous injection [8]: None
- ED50 ([9]; Rattus norvegicus, sc, read-out: Formalin test ED50): 3.62 mg/kg
- Early Phase versus Late Phase effect in formalin test [9]: more robust effect of Compound 4 in the Late Phase effects than the Early Phase
- Effect on formalin-induced events ([9]; dose response): dose-dependent reversal of formalin-induced events
